The test system of assay [1] is human. Conditions: in vivo; cited from earlier work.
Assay [2] relates to hemorrhagic shock. As to conditions: in vivo; cited from earlier work.
Assay [3] concerns animal models of ischemia/reperfusion. Conditions: in vivo; cited from earlier work.
The subject of assay [4] is perfused hearts. As to the kind of experiment: calcium paradox in perfused hearts (Langendorff). Set-up: species or system rat. The procedure: The effect of short-term hyperglycemia (2-5 days) on the calcium paradox was explored. The protocol (a 30-minute stabilization after hanging the heart on a Langendorff apparatus, a Ca^2+-free buffer for 10 min, a buffer containing 1.25 mM Ca^2+ buffer for 15 min) was initially applied to perfused hearts from control rats. When calcium was removed from the perfusate, the heart gradually ceased beating (FIG. 2A), although no protein loss from the heart was detected (FIG. 3C). […] The decrease in left ventricular […] pressure (LVDP) and an elevation in end diastolic pressure (EDP), as well as protein loss and blanching signaled the transition to a “stone heart” (Zimmerman, Cardiovasc Res (2000) 45(1):119-121) in hearts from all control animals examined.
Azaserine (AZA), the inhibitor of GFAT and HBP flux (Marshall, et al., J Biol Chem (1991) 266(8):4706-4712), negated the effects of hyperglycemia, restoring sensitivity to the paradox in 3 of 7 hearts (FIG. 2B). […] This decreased somewhat the protection seen with hyperglycemia, but made the reversal seen with azaserine more pronounced (FIGS. 2B and 3).
To confirm the involvement of the HBP in the protection due to hyperglycemia, a complementary series of experiments at a final Ca^2+ concentration of 1.25 mM were performed.
An independent mechanism of increasing metabolites in the HBP is to provide the heart with free fatty acids (Hawkins, et al., J Clin Invest (1997) 99(9):2173-2182). This occurs because of the “glucose-sparing” effect, a rapid block on the entry of glucose into the glycolytic pathway because of an inhibition of phosphofructokinase. […] In addition, SKF96365 (also known as 1-[β-[3-(4-methoxyphenyl)propoxy]-4-methoxyphenethyl]-1H-imidazole, HCl; available from Calbiochem, San Diego, Calif.) as an independent means of blocking the channels responsible for CCE was utilized (Putney, Capacitative Calcium Entry (1997) Austin: Landes Biomedical). This too was at least partially effective in 4 of 6 animals (FIG. 4).

The subject of assay [5] is isolated rat heart. As to conditions: administered prior to ischemia or just prior to reperfusion; cited from earlier work.
Assay [6] relates to isolated cardiomyocyte. Conditions: cited from earlier work.

Structures can show the parent of a compound that is named as a salt.

Here are results for five compounds from patent US20080166323A1, “Activators of Hexosamine Biosynthesis as Inhibitors of Injury Induced by Ischemia or Hermorrhagic Shock” (UAB RESEARCH FOUNDATION, priority 2004, published 2008).

`O=C(COP(=O)(O)O)[C@@H](O)[C@H](O)[C@H](O)COP(=O)(O)O` [FBP, fructose-1,6-bisphosphate]: in assay [1], the “outcomes in human studies” value was “improved outcomes”. Also, the “protection in hemorrhagic shock” value in assay [2] is on record as “protective”. Besides, the “protection in animal models of ischemia/reperfusion” value in assay [3] is on record as “protective”. As for `CN(N=O)C(=O)N[C@H]1C(O)O[C@H](CO)[C@@H](O)[C@@H]1O` (mixture of isomers) [streptozotocin], the “hearts demonstrating almost complete protection in the calcium paradox” value in assay [4] (hearts from animals made hyperglycemic by STZ treatment (2-5 days), 10 min Ca2+-free, 1.25 mM Ca2+ readdition) is recorded as 7 of 7. On to `NC(=O)CC[C@H](N)C(=O)O` [glutamine], for which the “protection in cardiac ischemia” value in assay [5] is “remarkable protection”. Further, the “protection in isolated cardiomyocyte model” value in assay [6] was “protective”. Take `COc1ccc(CCCOC(Cn2ccnc2)c2ccc(OC)cc2)cc1` (stereo not drawn) [SKF96365, 1-[β-[3-(4-methoxyphenyl)propoxy]-4-methoxyphenethyl]-1H-imidazole, HCl]: the “animals in which treatment was at least partially effective in the calcium paradox” value in assay [4] (final Ca2+ 1.25 mM) is 4 of 6.

Turning to `[N-]=[N+]=CC(=O)OC[C@H](N)C(=O)O` [Azaserine], in assay [4] (hearts from STZ hyperglycemic animals treated with azaserine), the “hearts in which sensitivity to the calcium paradox was restored (effects of hyperglycemia negated)” value is given as 3 of 7.
